In publication PMC8674143, “Accuracy mechanism of eukaryotic ribosome translocation” (Nature, 2021):

Target: T1, eEF2 (Saccharomyces cerevisiae, UniProt P32324)
T1 construct: gene EFT1; native full-length eEF2 purified from yeast, diphthamide at residue 699
Test: X-ray crystallography, […] Å
Format: binding
Conditions: on the 80S ribosome with mRNA, Phe-tRNAPhe and fMet-tRNAfMet; GTP pocket of G domain, next to sarcin-ricin loop; Mg2+; 0.25 mM ligand

T1 sequence (P32324 whole entry): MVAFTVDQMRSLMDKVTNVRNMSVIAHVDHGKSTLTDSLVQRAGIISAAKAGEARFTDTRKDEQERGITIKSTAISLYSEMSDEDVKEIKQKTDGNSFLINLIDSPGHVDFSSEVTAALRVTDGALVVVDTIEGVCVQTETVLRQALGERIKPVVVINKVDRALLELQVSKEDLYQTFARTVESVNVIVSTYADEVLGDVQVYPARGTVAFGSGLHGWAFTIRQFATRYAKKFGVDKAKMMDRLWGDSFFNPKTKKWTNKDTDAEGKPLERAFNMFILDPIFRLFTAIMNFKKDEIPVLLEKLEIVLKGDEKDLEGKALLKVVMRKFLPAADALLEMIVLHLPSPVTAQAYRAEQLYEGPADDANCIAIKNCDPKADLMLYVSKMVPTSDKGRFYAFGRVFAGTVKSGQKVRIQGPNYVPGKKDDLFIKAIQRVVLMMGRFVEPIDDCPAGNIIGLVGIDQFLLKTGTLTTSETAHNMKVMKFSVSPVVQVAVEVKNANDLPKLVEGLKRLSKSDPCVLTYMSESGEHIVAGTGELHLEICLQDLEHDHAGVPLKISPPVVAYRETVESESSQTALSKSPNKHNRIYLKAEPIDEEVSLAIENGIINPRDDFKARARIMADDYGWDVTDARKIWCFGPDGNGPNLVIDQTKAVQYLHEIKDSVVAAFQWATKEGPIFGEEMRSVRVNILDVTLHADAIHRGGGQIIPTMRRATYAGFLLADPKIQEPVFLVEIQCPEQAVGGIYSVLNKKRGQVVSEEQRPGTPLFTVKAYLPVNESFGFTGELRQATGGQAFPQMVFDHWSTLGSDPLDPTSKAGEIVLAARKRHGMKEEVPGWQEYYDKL

In the case of `Nc1nc2c(ncn2[C@@H]2O[C@H](COP(=O)(O)OP(=O)(O)CP(=O)(O)O)[C@@H](O)[C@H]2O)c(=O)[nH]1` [GMPPCP], the “X-ray crystallography, 3.2 Å” value is reported as “native S. cerevisiae eEF2, the nonhydrolyzable GTP analogue GMPPCP, mRNA and two tRNAs”.
